Results on ten molecules are retold here after patent US5041579A, “Platinum complexes and uses therewith” (Ajinomoto Co., Inc., priority 1987, dated 1991).

Data set [1] has as its system Colon 38 cells. The data set can be described thus: Anti-tumor activity testing 4: tumor-growth inhibition of subcutaneous Colon 38, intravenous injection. Type of data set: in vivo, Female BDF mice. The note with it: 21 days after transplantation. The text has this: Female BDF mice of 5-week age were used as test animals (eight head for each group).
For data set [2] the following is noted: cited from earlier work.
For data set [3], the system named is L1210 cells. The data set can be described thus: Growth inhibition of L1210 cells ([3H]-thymidine uptake). It counts as cell-based, mouse. The note with it: 46 h incubation plus 2 h with [3H]-thymidine, 37° C. As for the experimental part:
(§1) L1210 cells and cisplatin-resistant L1210 cells under subcultivation were incubated in RPMI1640 medium containing 10% fetal bovine serum at 37° C. for 46 hours in an atmosphere containing 5% carbon dioxide. [^3 H]-thymidine was added to the grown cells, and incubation was continued for an additional two hours. The growth inhibition rate of a drug was calculated from the amounts of [^3 H]-thymidine taken into the cells in the presence and absence of that drug, and the 50% growth inhibition concentration (IC50) was determined from the graph of inhibition rate plotted against drug concentration. The degree of drug resistance was calculated from the ratio of IC50 for cisplatin-resistant L1210 cells to that for L1210 cells.

Data set [4] has as its system cisplatin-resistant L1210 cells. The data set is described as follows: Growth inhibition of cisplatin-resistant L1210 cells ([3H]-thymidine uptake). Type of data set: cell-based, mouse. The note with it: for IC50: 46 h incubation plus 2 h with [3H]-thymidine, 37° C.; for Degree of Resistance: ratio of IC50 for cisplatin-resistant L1210 cells to that for L1210 cells, 2880 min. As for the experimental part:
as §1

The subject of data set [5] is L1210 cells. The data set can be described thus: Anti-tumor activity testing 2: life-prolonging rate in mice transplanted intraperitoneally with L1210 cells. It counts as in vivo, Female BDF1 mice. The note with it: days 1, 5 and 9. The method, then: Female BDF1 mice of 5-week age were used as test animals (five head for each group).
L1210 cells (1×10^5) were intraperitoneally transplanted to each of the test animals, each of the Pt(II) complexes listed in Table 2 was then injected intraperitoneally one day, five days and nine days after transplantation (a total of three times), and the life-prolonging rate was measured for each test group. Physiologically saline was used as the solvent of injections.

Data set [6] relates to Colon 38 cells. The data set can be described thus: Anti-tumor activity testing 3: tumor-growth inhibition of subcutaneous Colon 38, intraperitoneal injection. It counts as in vivo, female BDF mice. The note with it: days 1, 8 and 15, 21 days after transplantation. The method, then: female BDF mice of 5-week age were used as test animals (five head for each group).
Colon 38 cells (40 mg) were subcutaneously transplanted to each of the test animals at the haunch, each of the Pt(II) complexes listed in Table 3 was then injected intraperitoneally 1 day, 8 days and 15 days after transplantation (a total of three times), and the tumor-growth inhibition rate was measured for each test group 21 days after transplantation.

Data set [7] concerns Sarcoma-180 cells. The data set is described as follows: Anti-tumor activity testing 1: life-prolonging rate in mice transplanted intraperitoneally with Sarcoma-180 cells. It counts as in vivo, Female ICR/CRJ mice. The note with it: day after transplantation. The method, then: Female ICR/CRJ mice of 5-week age were used as test animals (five head for each group).
Sarcoma-180 cells (1×10^6) were intraperitoneally transplanted to each of the test animals, each of the Pt(II) complexes listed in Table 1 was then injected intraperitoneally on the next day, and the life-prolonging rate was measured for each test group. Physiologically saline was used as the solvent of injections.

A short description of data set [8]: Solubility in physiological saline. It counts as physicochemical.

Some results are limits rather than exact numbers.

In the case of `NC1CCCC(O)C1N.O=S1(=O)[O][Pt][O]1` (single isomer, unassigned; (+)) [Compound No. 8, (+)-Cis-sulfato-(1/2,3)-2,3-diaminocyclohexanol-platinum(II)], the “Tumor-growth Inhibition Rate” value was 34% in data set [1] (2 mg/kg × 6, i.v.); 35% in data set [1] (4 mg/kg × 6, i.v.); 61% in data set [1] (8 mg/kg × 6, i.v.); 91% in data set [1] (16 mg/kg × 6, i.v.).

On to `NC1CCCC(O)C1N.O=S1(=O)[O][Pt][O]1` (single isomer, unassigned; (-)) [Compound No. 9], for which the “Tumor-growth Inhibition Rate” value is on record as 40% in data set [1] (2 mg/kg × 6, i.v.); 88% in data set [1] (4 mg/kg × 6, i.v.); 88% in data set [1] (8 mg/kg × 6, i.v.); “toxic” in data set [1] (16 mg/kg × 6, i.v.).

As for `N.N.[Cl][Pt][Cl]` [Cisplatin, cis-dichlorodiamineplatinum(II), reference compound], in data set [2] (Nature, 222, 385 (1969)), the “anti-tumor activity (in words)” value is “high anti-tumor activity”. Also, in data set [2] (clinical use), the “side effects (in words)” value is “severe side effects, such as toxicity to the kidney, nausea, emesis and bradyacusia”. The “Tumor-growth Inhibition Rate” value in data set [1] (1 mg/kg × 6, i.v.) was 19%; in data set [1] (2 mg/kg × 6, i.v.), 58%; in data set [1] (4 mg/kg × 6, i.v.) it was 84%; in data set [1] (8 mg/kg × 6, i.v.) it was “toxic”. Further, the values for the IC50 in data set [3] and in data set [4] were 1 µM and 10.5 µM, respectively. In data set [4], the “Degree of Resistance” value stood at 10.5.

Take `O=C1[O][Pt]2([NH]C3CCCC(O)C3[NH]2)[O]C1=O` (stereo not drawn) [Compound No. 1, Cis-oxalato-(1/2,3)-2,3-diamino-1-cyclohexanolplatinum(II)]: the “Life-prolonging Rate” value in data set [5] (7.5 μmol/Kg × 3, i.p.) was 115%; in data set [5] (15.0 μmol/Kg × 3, i.p.) it was 115%; in data set [5] (30.0 μmol/Kg × 3, i.p.), 132%; in data set [7] (4.0 mg/Kg × 1, i.p.) it was 189%; in data set [7] (8.0 mg/Kg × 1, i.p.) it was 218%; in data set [7] (16.0 mg/Kg × 1, i.p.) it was 266%. Besides, the IC50 in data set [3] was found to be 3.5 µM; in data set [4] it was 6.6 µM. For the same molecule, the “Tumor-growth Inhibition Rate” value in data set [6] (20.0 μmol/Kg × 3, i.p.) amounted to 24%; in data set [6] (30.0 μmol/Kg × 3, i.p.) it was 16%; in data set [6] (45.0 μmol/Kg × 3, i.p.), 45%. The “Degree of Resistance” value in data set [4] was 1.9.

`NC1CCCC(O)C1N.O=S(=O)([O-])[O-].[Pt+2]` (stereo not drawn) [Compound No. 2, Cis-sulfato-(1/2,3)-2,3-diamino-1-cyclohexanolplatinum(II)]: the “Life-prolonging Rate” value in data set [5] (7.5 μmol/Kg × 3, i.p.) is on record as 136%; in data set [5] (15.0 μmol/Kg × 3, i.p.), 134%; in data set [5] (30.0 μmol/Kg × 3, i.p.), 151%; in data set [7] (4.0 mg/Kg × 1, i.p.), 295%; in data set [7] (8.0 mg/Kg × 1, i.p.), 532%; in data set [7] (16.0 mg/Kg × 1, i.p.) it was 534%. For the same molecule, the Solubility in data set [8] is greater than 20.0 mg/mL. In addition, the “Tumor-growth Inhibition Rate” value in data set [1] (2 mg/kg × 6, i.v.) is recorded as 22%; in data set [1] (4 mg/kg × 6, i.v.) it was 41%; in data set [1] (8 mg/kg × 6, i.v.) it was 90%; in data set [1] (16 mg/kg × 6, i.v.), “toxic”; in data set [6] (20.0 μmol/Kg × 3, i.p.) it was 47%; in data set [6] (30.0 μmol/Kg × 3, i.p.), 78%. Further, the “Tumor-growth Inhibition Rate” value in data set [6] (45.0 μmol/Kg × 3, i.p.) turned out to be 97%. The IC50 in data set [3] was found to be 1.7 µM; in data set [4], 3.2 µM. The “Degree of Resistance” value in data set [4] was found to be 1.9.

Regarding `O=C1C[O][Pt]2([NH]C3CCCC(O)C3[NH]2)[O]1` (stereo not drawn) [Compound No. 3, Cis-glycolato-(1/2,3)-2,3-diamino-1-cyclohexanolplatinum(II)], the “Life-prolonging Rate” value is recorded as 116% in data set [5] (7.5 μmol/Kg × 3, i.p.); 122% in data set [5] (15.0 μmol/Kg × 3, i.p.); 147% in data set [5] (30.0 μmol/Kg × 3, i.p.); 212% in data set [7] (4.0 mg/Kg × 1, i.p.); 182% in data set [7] (8.0 mg/Kg × 1, i.p.); 252% in data set [7] (16.0 mg/Kg × 1, i.p.). Also, the IC50 stood at 1.3 µM in data set [3] and 2.5 µM in data set [4]. Further, the “Tumor-growth Inhibition Rate” value in data set [6] (20.0 μmol/Kg × 3, i.p.) came to 70%; in data set [6] (30.0 μmol/Kg × 3, i.p.), 72%; in data set [6] (45.0 μmol/Kg × 3, i.p.), 96%. Also, the “Degree of Resistance” value in data set [4] was found to be 1.9.

Regarding `NC1CCCC(N)C1.O=C1[O][Pt][O]C1=O` (stereo not drawn) [Compound No. 4, Cis-oxalato-1,3-diaminocyclohexaneplatinum(II)], the “Life-prolonging Rate” value in data set [5] (7.5 μmol/Kg × 3, i.p.) was determined as 127%; in data set [5] (15.0 μmol/Kg × 3, i.p.) it was 222%; in data set [5] (30.0 μmol/Kg × 3, i.p.), 245%; in data set [7] (4.0 mg/Kg × 1, i.p.), 248%; in data set [7] (8.0 mg/Kg × 1, i.p.), 258%; in data set [7] (16.0 mg/Kg × 1, i.p.), 364%. Also, the half-maximal inhibitory concentration (IC50) came to 2.4 µM in data set [3] and 5 µM in data set [4]. Further, the “Tumor-growth Inhibition Rate” value is 54% in data set [6] (20.0 μmol/Kg × 3, i.p.); 77% in data set [6] (30.0 μmol/Kg × 3, i.p.); 88% in data set [6] (45.0 μmol/Kg × 3, i.p.). Besides, the “Degree of Resistance” value in data set [4] is 2.1.

As to `O=S1(=O)[O][Pt]2([NH]C3CCCC(C3)[NH]2)[O]1` [Compound No. 5, Cis-sulfato-1,3-diaminocyclohexaneplatinum(II)], the “Life-prolonging Rate” value worked out at 121% in data set [5] (7.5 μmol/Kg × 3, i.p.); 189% in data set [5] (15.0 μmol/Kg × 3, i.p.); 155% in data set [5] (30.0 μmol/Kg × 3, i.p.); 202% in data set [7] (4.0 mg/Kg × 1, i.p.); 187% in data set [7] (8.0 mg/Kg × 1, i.p.); 236% in data set [7] (16.0 mg/Kg × 1, i.p.). Besides, the IC50 in data set [3] was 3.1 µM; in data set [4], 7.9 µM. Moreover, the “Tumor-growth Inhibition Rate” value in data set [6] (20.0 μmol/Kg × 3, i.p.) amounted to 36%; in data set [6] (30.0 μmol/Kg × 3, i.p.), 56%; in data set [6] (45.0 μmol/Kg × 3, i.p.) it was 56%. Moreover, the “Degree of Resistance” value in data set [4] is given as 2.5.

In the case of `NC1CCCC(N)C1.O=C1[O][Pt][O]C(=O)C12CCC2` [Compound No. 6, Cis-cyclobutane-1,1-dicarboxylato-1,3-diaminocyclohexaneplatinum(II)], the “Life-prolonging Rate” value came to 98% in data set [5] (30.0 μmol/Kg × 3, i.p.); 104% in data set [5] (60.0 μmol/Kg × 3, i.p.); 126% in data set [7] (16.0 mg/Kg × 1, i.p.); 106% in data set [7] (32.0 mg/Kg × 1, i.p.).

Consider `O=S1(=O)[O][Pt]2([NH]C3CC([NH]2)C(O)C(O)C3O)[O]1` (stereo not drawn) [Compound No. 7, Cis-sulfato-2-deoxystreptamineplatinum(II)], for which the “Life-prolonging Rate” value in data set [5] (15.0 μmol/Kg × 3, i.p.) was 102%; in data set [5] (30.0 μmol/Kg × 3, i.p.), 109%; in data set [5] (60.0 μmol/Kg × 3, i.p.), 119%; in data set [7] (8.0 mg/Kg × 1, i.p.) it was 126%; in data set [7] (16.0 mg/Kg × 1, i.p.), 120%; in data set [7] (32.0 mg/Kg × 1, i.p.), 241%.
